# Reference: patent publication US9469650B2, “Melampomagnolide B derivatives” (BOARD OF TRUSTEES OF THE UNIVERSITY OF ARKANSAS, priority 2013, dated 2016)
# Experiments:
# LOX IMVI = assay: panel of 60 human tumor cell lines, growth inhibition (Melanoma)
# SW-620 = assay: panel of 60 human tumor cell lines, growth inhibition (Colon Cancer); settings: for GI50: SW-620, SW-620; for Percent Growth: SW-620
# PC-3 = assay: panel of 60 human tumor cell lines, growth inhibition (Prostate Cancer)
# MDA-MB-231/ATCC = assay: panel of 60 human tumor cell lines, growth inhibition (Breast Cancer); settings: for Percent Growth: MDA-MB-231/ATCC
# HOP-92 = assay: panel of 60 human tumor cell lines, growth inhibition (Non-Small Cell Lung Cancer); settings: for Percent Growth: HOP-92; for GI50: HOP-92, HOP-92
# SF-268 = assay: panel of 60 human tumor cell lines, growth inhibition (CNS Cancer)
# SN12C = assay: panel of 60 human tumor cell lines, growth inhibition (Renal Cancer)
# HOP-62 = assay: panel of 60 human tumor cell lines, growth inhibition (Non-Small Cell Lung Cancer)
# U251 = assay: panel of 60 human tumor cell lines, growth inhibition (CNS Cancer); settings: for Percent Growth: U251
compound,measurement,setting,value
"C=C1C(=O)O[C@H]2[C@H]1CC/C(COC(=O)NCCc1ccccn1)=C\CC[C@@]1(C)O[C@@H]21 [JVM 61, ((1aR,7aS,10aS,10bS,E)-1a-methyl-8-methylene-9-oxo-1a,2,3,6,7,7a,8,9,10a,10b-decahydrooxireno[2′,3′:9,10]cyclodeca[1,2-b]furan-5-yl)methyl-(2-(pyridin-2-yl)ethyl)carbamate]",CC50,"LOX IMVI; Homo sapiens, read-out: LC50",58.2 µM
same,IC (TGI),"LOX IMVI; Homo sapiens, read-out: TGI",19.4 µM
same,Percent Growth,LOX IMVI; Log10 Concentration −4.0,−75%
same,Percent Growth,LOX IMVI; Log10 Concentration −5.0,30%
same,Percent Growth,LOX IMVI; Log10 Concentration −6.0,96%
same,Percent Growth,LOX IMVI; Log10 Concentration −7.0,102%
same,Percent Growth,LOX IMVI; Log10 Concentration −8.0,99%
same,GI50,SW-620; Homo sapiens,3.13 µM
same,GI50,"SW-620; Homo sapiens, 5-dose assay",3.13 µM
same,CC50,"SW-620; Homo sapiens, SW-620, read-out: LC50",54.5 µM
same,IC (TGI),"SW-620; Homo sapiens, SW-620, read-out: TGI",12.3 µM
same,Percent Growth,SW-620; Log10 Concentration −4.0,−70%
same,Percent Growth,SW-620; Log10 Concentration −5.0,7%
same,Percent Growth,SW-620; Log10 Concentration −6.0,92%
same,Percent Growth,SW-620; Log10 Concentration −7.0,105%
same,Percent Growth,SW-620; Log10 Concentration −8.0,109%
same,GI50,"PC-3; Homo sapiens, PC-3",15.6 µM
same,CC50,"PC-3; Homo sapiens, PC-3, read-out: LC50",76.8 µM
same,IC (TGI),"PC-3; Homo sapiens, PC-3, read-out: TGI",35.7 µM
same,Percent Growth,"PC-3; PC-3, Log10 Concentration −4.0",−67%
same,Percent Growth,"PC-3; PC-3, Log10 Concentration −5.0",83%
same,Percent Growth,"PC-3; PC-3, Log10 Concentration −6.0",97%
same,Percent Growth,"PC-3; PC-3, Log10 Concentration −7.0",95%
same,Percent Growth,"PC-3; PC-3, Log10 Concentration −8.0",98%
same,GI50,"MDA-MB-231/ATCC; Homo sapiens, MDA-MB-231",11.4 µM
same,CC50,"MDA-MB-231/ATCC; Homo sapiens, MDA-MB-231, read-out: LC50",56.4 µM
same,IC (TGI),"MDA-MB-231/ATCC; Homo sapiens, MDA-MB-231, read-out: TGI",25.4 µM
same,Percent Growth,MDA-MB-231/ATCC; Log10 Concentration −4.0,−86%
same,Percent Growth,MDA-MB-231/ATCC; Log10 Concentration −5.0,58%
same,Percent Growth,MDA-MB-231/ATCC; Log10 Concentration −6.0,96%
same,Percent Growth,MDA-MB-231/ATCC; Log10 Concentration −7.0,100%
same,Percent Growth,MDA-MB-231/ATCC; Log10 Concentration −8.0,103%
same,Percent Growth,HOP-92; Log10 Concentration −4.0,−87%
same,Percent Growth,HOP-92; Log10 Concentration −5.0,12%
same,Percent Growth,HOP-92; Log10 Concentration −6.0,71%
same,Percent Growth,HOP-92; Log10 Concentration −7.0,66%
same,Percent Growth,HOP-92; Log10 Concentration −8.0,0.2%
same,GI50,HOP-92; Homo sapiens,2250 nM
same,GI50,"HOP-92; Homo sapiens, 5-dose assay",2250 nM
same,CC50,"HOP-92; Homo sapiens, HOP-92, read-out: LC50",42.2 µM
same,IC (TGI),"HOP-92; Homo sapiens, HOP-92, read-out: TGI",13.1 µM
same,GI50,"SF-268; Homo sapiens, SF-268",16.2 µM
same,CC50,"SF-268; Homo sapiens, SF-268, read-out: LC50",71.7 µM
same,IC (TGI),"SF-268; Homo sapiens, SF-268, read-out: TGI",34 µM
same,Percent Growth,"SF-268; SF-268, Log10 Concentration −4.0",−72%
same,Percent Growth,"SF-268; SF-268, Log10 Concentration −5.0",82%
same,Percent Growth,"SF-268; SF-268, Log10 Concentration −6.0",102%
same,Percent Growth,"SF-268; SF-268, Log10 Concentration −7.0",109%
same,Percent Growth,"SF-268; SF-268, Log10 Concentration −8.0",106%
same,GI50,SN12C; Homo sapiens,6.61 µM
same,CC50,"SN12C; Homo sapiens, read-out: LC50",66.3 µM
same,IC (TGI),"SN12C; Homo sapiens, read-out: TGI",25.4 µM
same,Percent Growth,SN12C; Log10 Concentration −4.0,−70%
same,Percent Growth,SN12C; Log10 Concentration −5.0,41%
same,Percent Growth,SN12C; Log10 Concentration −6.0,91%
same,Percent Growth,SN12C; Log10 Concentration −7.0,92%
same,Percent Growth,SN12C; Log10 Concentration −8.0,95%
same,Percent Growth,"HOP-62; HOP-62, Log10 Concentration −4.0",−65%
same,Percent Growth,"HOP-62; HOP-62, Log10 Concentration −5.0",91%
same,Percent Growth,"HOP-62; HOP-62, Log10 Concentration −6.0",108%
same,Percent Growth,"HOP-62; HOP-62, Log10 Concentration −7.0",102%
same,Percent Growth,"HOP-62; HOP-62, Log10 Concentration −8.0",99%
same,GI50,"HOP-62; Homo sapiens, HOP-62",18.4 µM
same,CC50,"HOP-62; Homo sapiens, HOP-62, read-out: LC50",79.7 µM
same,IC (TGI),"HOP-62; Homo sapiens, HOP-62, read-out: TGI",38.3 µM
same,GI50,"U251; Homo sapiens, U-251",12.5 µM
same,CC50,"U251; Homo sapiens, U-251, read-out: LC50",55.6 µM
same,IC (TGI),"U251; Homo sapiens, U-251, read-out: TGI",25.4 µM
same,Percent Growth,U251; Log10 Concentration −4.0,−89%
same,Percent Growth,U251; Log10 Concentration −5.0,65%
same,Percent Growth,U251; Log10 Concentration −6.0,93%
same,Percent Growth,U251; Log10 Concentration −7.0,91%
same,Percent Growth,U251; Log10 Concentration −8.0,97%
